Among the data in patent publication US10457707B2, “Substituted urea depsipeptide analogs as activators of the CLPP endopeptidase” (priority 2015, dated 2019) are EC50 and MIC values, retold here.

≈ marks a conversion by molar mass, not a printed value. Where two headings read alike, the source gives them in different places. *1 amine or outer side, *2 acyl side, *3 side chain or, on linkers, in order; H or OH if unused. Where a SMILES comes first, the peptide text is derived from it. Bridges are numbered along the chain shown (N, C = ends). [ ]: non-standard residue; d: D form. The star is where a group is joined. ξ: configuration not given here. Phe(3,5-F2) = N[C@@H](Cc1cc(F)cc(F)c1)C(=O)O; NMepT = CN[C@H](C(=O)O)[C@@H](C)OP(=O)(O)O; NH(4-OCF3-phenyl) = FC(F)(F)Oc1ccc(N*)cc1; Morpholine(3S-CO) = O=C(O)[C@@H]1COCCN1; Pro(4S-Me) = C[C@@H]1CN[C@H](C(=O)O)C1; Pro(4R-Me) = C[C@H]1CN[C@H](C(=O)O)C1; NH(3,4-Me2-phenyl) = Cc1ccc(N*)cc1C; NMeaThr = CN[C@H](C(=O)O)[C@H](C)O; Hyp = O=C(O)[C@@H]1C[C@@H](O)CN1; NH(4-Et-phenyl) = CCc1ccc(N*)cc1; NH(4-Me-phenyl) = Cc1ccc(N*)cc1; aThr = C[C@H](O)[C@H](N)C(=O)O; Pip = O=C(O)[C@@H]1CCCCN1; NMeA = CN[C@@H](C)C(=O)O; CO = O=C([*:1])[*:2]; ξP = O=C(O)C1CCCN1

One assay concerns the target T1, Sa-ClpP (Staphylococcus aureus, UniProt Q2G036).
T1 construct: made in house; host or cells: E. coli BL21(DE3)
T1 sequence (Q2G036 1-195): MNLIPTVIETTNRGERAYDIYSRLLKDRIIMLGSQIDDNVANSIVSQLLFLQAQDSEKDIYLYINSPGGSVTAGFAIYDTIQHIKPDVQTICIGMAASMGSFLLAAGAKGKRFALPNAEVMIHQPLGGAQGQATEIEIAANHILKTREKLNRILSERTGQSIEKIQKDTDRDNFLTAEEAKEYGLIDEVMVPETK
In words: Sa-ClpP casein-BODIPY ClpP activation assay, method variant not marked in Table 5. Type of assay: biochemical, S. aureus. Here is the method: The compounds were assayed in a casein digestion assay in order to determine their effect on ClpP activation. Briefly, the assay was carried out using S. aureus ClpP (“Sa-ClpP”) overexpressed in E. coli BL21(DE3) and purified in a two-step process. Purity of the protein was assessed through SDS PAGE analysis. EC50 evaluations were conducted in triplicate in a 20 μl assay format using a method adapted from Maurizi et al. (Methods Enzymol. (1994) 244:314-331). Each well contained 10 μM saClpP, 25 μg/ml BODIPY FL casein (Invitrogen Corporation, San Diego, Calif.), and test compound in concentrations ranging between 0-1000 μM in assay buffer (50 mM Tris pH 8, 200 mM KCl, and 1 mM TCEP). The reaction took place at 37° C. Fluorescence (excitation 485 nm; emission 528 nm) was measured in five minute intervals over a 45 min period using a BioTek HT fluorescence microplate reader (BioTek Instruments, Inc., Winooski, Vt.). Velocity of each reaction was calculated and data was fit to a dose response curve using GraphPad Prism® software (GraphPad Software, Inc., La Jolla, Calif.). EC50 is the effective concentration of compound which causes 50% activation of S. aureus ClpP in the foregoing BODIPY FL casein assay.
Alternatively, the assay was carried out using EnzCheck Protease Assay (Molecular Probes, Catalog # E6638). The assay was performed in black 384 well, flat bottom, low volume plates (Greiner Bio-One, Monroe, N.C., catalog #784076). 10 μL of Tris*HCl buffer, pH 8.0 with 0.01% Triton X-100 was pipetted into each well using a Well-Mate (Thermo Scientific, Waltham, Mass.). 0.4 μL test compounds or controls (2% DMSO v/v) were added to each well using a Biomek FX liquid handling robot (Beckman Coulter, Indianapolis Ind.). After addition of test compounds and controls, 10 μL of master mix containing 2 μM Sa-ClpP and 2 μM substrate (Bodipy-FL labeled casein) in Tris*HCl buffer, pH 8.0 with 0.01% (v/v) Triton X-100, was pipetted into each well. All assays were performed in triplicate, under linear velocity conditions. Increase in fluorescent signal following activation of Sa-ClpP by test compounds and controls was measured over time period of 30 mins using filters with excitation at 485±15 nm and emission at 520±25 nm on a PHERAstar FS Multilabel reader (BMG, Cary, N.C.). […] Data analysis was done by measuring rate of casein degradation over time (slopes). Computed degradation rates (slopes) were normalized to positive (ADEP4) or negative (DMSO) controls. Using nonlinear regression curve fitting EC50 values and % activation were determined using the equation “log [agonist] vs. Response-variable slope (four parameters)-symmetrical” in the program Prism 6 (GraphPad Software, La Jolla, Calif. USA, www.graphpad.com).
Substituted urea depsipetide analogs were synthesized as described above. The EC50 for ClpP activation was determined in the Sa-ClpP in casein-BODIPY assay as described above. The IC50 for ADEP displacement was determined in the ADEP displacement fluorescent polarization assay as described above; and the IC50 for growth inhibition was determined in the Vero cell cytotoxicity assay as described above. The compound number corresponds to the compound numbers used in Tables 1-4 and the experimental examples described above.

For assay [1], the system named is Enterococcus faecalis, ATCC 33186. In words: Minimal inhibitory concentration assay (microbroth dilution). The class given is cell-based. The note with it: read-out: Minimal Inhibitory Concentrations E. faecalis ATCC 33186. The procedure, abridged:
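Paired MICs against USA 300 and its ClpP-inactivated counterpart test whether killing runs through ClpP. All strains: two-fold broth dilutions from 200 μM final, ~10^5 cfu/mL inoculum, overnight at 37 °C in air, lowest growth-free concentration read by eye.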
In general terms: In broth dilution the organism is exposed to a series of concentrations in liquid medium.

The mark [2] stands for this setting: values without ** or † mark, assay variant not stated, read-out: ClpP Activation EC50.

By EC50 is commonly meant the midpoint of the concentration-response curve. For the compound `Cc1ccc(NC(=O)N[C@@H](Cc2cc(F)cc(F)c2)C(=O)N[C@@H]2C(=O)N3CCC[C@H]3C(=O)N(C)[C@@H]([C@@H](C)OP(=O)(O)O)C(=O)N[C@@H](C)C(=O)N3C[C@@H](C)C[C@H]3C(=O)O[C@H]2C)cc1` [Compound 188, (R)-1-((2S,6S,9S,11aS,17S,18S,20aS)-17-((S)-3-(3,5-difluorophenyl)-2-(3-(p-tolyl)ureido)propanamido)-2,6,10,18-tetramethyl-5,8,11,16,20-pentaoxohexadecahydro-1H,5H,16H-dipyrrolo[2,1-c:2′,1′-l][1]oxa[4,7,10,13]tetraazacyclohexadecin-9-yl)ethyl dihydrogen phosphate] ({NH(4-Me-phenyl)-CO}-[Phe(3,5-F2)][aThr]P[NMepT]A[Pro(4S-Me)]; ester 2-C), the EC50 at Sa-ClpP (setting [2]) amounted to 1.8 ± 0.07 µM.

`C[C@@H]1C[C@H]2C(=O)OC[C@H](NC(=O)[C@H](Cc3ccccc3)NC(=O)Nc3ccc4c(c3)OCO4)C(=O)N3CCC[C@H]3C(=O)N3CCCC[C@H]3C(=O)N[C@@H](C)C(=O)N2C1` [Compound 194, (S)-2-(3-(benzo[d][1,3]dioxol-5-yl)ureido)-N-((2R,6S,8aS,14aS,20S,23aS)-2,6-dimethyl-5,8,14,19,23-pentaoxooctadecahydro-1H,5H,14H,19H-pyrido[2,1-i]dipyrrolo[2,1-c:2′,1′-l][1]oxa[4,7,10,13]tetraazacyclohexadecin-20-yl)-3-phenylpropanamide]: at Sa-ClpP (setting [2]), the EC50 turned out to be 1.2 ± 0.6 µM.

`C[C@@H]1C[C@H]2C(=O)OC[C@H](NC(=O)[C@H](Cc3ccccc3)NC(=O)Nc3ccc(OC(F)(F)F)cc3)C(=O)N3CCC[C@H]3C(=O)N3CCCC[C@H]3C(=O)N[C@@H](C)C(=O)N2C1` [Compound 205]: the MIC in assay [1] (E. faecalis ATCC 33186) is on record as 0.02 µM (≈ 0.0166 µg/mL).

Turning to `Cc1ccc(NC(=O)N[C@@H](Cc2cc(F)cc(F)c2)C(=O)N[C@@H]2C(=O)N3CCC[C@H]3C(=O)N(C)[C@@H]([C@H](C)O)C(=O)N[C@@H](C)C(=O)N3C[C@H](C)C[C@H]3C(=O)O[C@H]2C)cc1` [Compound 208, (S)-3-(3,5-difluorophenyl)-N-((2R,6S,9S,11aS,17S,18S,20aS)-9-((S)-1-hydroxyethyl)-2,6,10,18-tetramethyl-5,8,11,16,20-pentaoxohexadecahydro-1H,5H,16H-dipyrrolo[2,1-c:2′,1′-l][1]oxa[4,7,10,13]tetraazacyclohexadecin-17-yl)-2-(3-(p-tolyl)ureido)propanamide] ({NH(4-Me-phenyl)-CO}-[Phe(3,5-F2)][aThr]P[NMeaThr]A[Pro(4R-Me)]; ester 2-C), the EC50 at Sa-ClpP (setting [2]) was found to be 0.48 ± 0.03 µM.

Take `Cc1ccc(NC(=O)N[C@@H](Cc2cc(F)cc(F)c2)C(=O)N[C@@H]2C(=O)N3CCC[C@H]3C(=O)N3CCCC[C@H]3C(=O)N[C@@H](C)C(=O)N3C[C@H](C)C[C@H]3C(=O)O[C@H]2C)cc1` [Compound 209, (S)-3-(3,5-difluorophenyl)-2-(3-(p-tolyl)ureido)-N-((2R,6S,8aS,14aS,20S,21S,23aS)-2,6,21-trimethyl-5,8,14,19,23-pentaoxooctadecahydro-1H,5H,14H,19H-pyrido[2,1-i]dipyrrolo[2,1-c:2′,1′-l][1]oxa[4,7,10,13]tetraazacyclohexadecin-20-yl)propanamide] ({NH(4-Me-phenyl)-CO}-[Phe(3,5-F2)][aThr]P[Pip]A[Pro(4R-Me)]; ester 2-C): the EC50 at Sa-ClpP (setting [2]) is 0.36 ± 0.03 µM.

For `Cc1ccc(NC(=O)N[C@@H](Cc2cc(F)cc(F)c2)C(=O)N[C@@H]2C(=O)N3CCC[C@H]3C(=O)N3CCOC[C@H]3C(=O)N[C@@H](C)C(=O)N3C[C@H](C)C[C@H]3C(=O)O[C@H]2C)cc1` [Compound 210, (S)-3-(3,5-difluorophenyl)-2-(3-(p-tolyl)ureido)-N-((6aS,12S,13S,15aS,17R,21S,23aS)-13,17,21-trimethyl-6,11,15,20,23-pentaoxooctadecahydro-6H,11H,15H-[1,4]oxazino[3,4-i]dipyrrolo[2,1-c:2′,1′-l][1]oxa[4,7,10,13]tetraazacyclohexadecin-12-yl)propanamide] ({NH(4-Me-phenyl)-CO}-[Phe(3,5-F2)][aThr]P[Morpholine(3S-CO)]A[Pro(4R-Me)]; ester 2-C), the EC50 at Sa-ClpP (setting [2]) was 0.4 ± 0.01 µM.

As for `CCc1ccc(NC(=O)N[C@@H](Cc2cc(F)cc(F)c2)C(=O)N[C@@H]2C(=O)N3C[C@H](O)C[C@H]3C(=O)N3CCCC[C@H]3C(=O)N[C@@H](C)C(=O)N3C[C@H](C)C[C@H]3C(=O)O[C@H]2C)cc1` [Compound 211, (S)-3-(3,5-difluorophenyl)-2-(3-(4-ethylphenyl)ureido)-N-((2R,6S,8aS,14aS,16R,20S,21S,23aS)-16-hydroxy-2,6,21-trimethyl-5,8,14,19,23-pentaoxooctadecahydro-1H,5H,14H,19H-pyrido[2,1-i]dipyrrolo[2,1-c:2′,1′-l][1]oxa[4,7,10,13]tetraazacyclohexadecin-20-yl)propanamide] ({NH(4-Et-phenyl)-CO}-[Phe(3,5-F2)][aThr][Hyp][Pip]A[Pro(4R-Me)]; ester 2-C), the EC50 on Sa-ClpP came to 0.5 ± 0.01 µM.

As for `Cc1ccc(NC(=O)N[C@@H](Cc2cc(F)cc(F)c2)C(=O)N[C@@H]2C(=O)N3C[C@H](O)C[C@H]3C(=O)N3CCCC[C@H]3C(=O)N[C@@H](C)C(=O)N3C[C@H](C)C[C@H]3C(=O)O[C@H]2C)cc1C` [Compound 212, (S)-3-(3,5-difluorophenyl)-2-(3-(3,4-dimethylphenyl)ureido)-N-((2R,6S,8aS,14aS,16R,20S,21S,23aS)-16-hydroxy-2,6,21-trimethyl-5,8,14,19,23-pentaoxooctadecahydro-1H,5H,14H,19H-pyrido[2,1-i]dipyrrolo[2,1-c:2′,1′-l][1]oxa[4,7,10,13]tetraazacyclohexadecin-20-yl)propanamide] ({NH(3,4-Me2-phenyl)-CO}-[Phe(3,5-F2)][aThr][Hyp][Pip]A[Pro(4R-Me)]; ester 2-C), the EC50 on Sa-ClpP (setting [2]) amounted to 0.5 ± 0.03 µM.

Consider `C[C@@H]1NC(=O)[C@H](C)N(C)C(=O)[C@@H]2CCCN2C(=O)[C@@H](NC(=O)[C@H](Cc2ccccc2)NC(=O)Nc2ccc(OC(F)(F)F)cc2)COC(=O)C2CCCN2C1=O` (stereo partly drawn) [Compound 213, (2S)-3-phenyl-2-(3-(4-(trifluoromethoxy)phenyl)ureido)-N-((6S,9S,11aS,17S)-6,9,10-trimethyl-5,8,11,16,20-pentaoxohexadecahydro-1H,5H,16H-dipyrrolo[2,1-c:2′,1′-l][1]oxa[4,7,10,13]tetraazacyclohexadecin-17-yl)propanamide] ({NH(4-OCF3-phenyl)-CO}-FSP[NMeA]A[ξP]; ester 2-C), for which the MIC in assay [1] (Enterococcus faecalis, ATCC33186) was 0.39 µM (≈ 0.307 µg/mL).

For the compound `Cc1ccc(NC(=O)N[C@@H](Cc2cc(F)cc(F)c2)C(=O)N[C@@H]2C(=O)N3C[C@H](O)C[C@H]3C(=O)N3CCOC[C@H]3C(=O)N[C@@H](C)C(=O)N3C[C@H](C)C[C@H]3C(=O)O[C@H]2C)cc1C` [Compound 215, (S)-3-(3,5-difluorophenyl)-2-(3-(3,4-dimethylphenyl)ureido)-N-((6aS,8R,12S,13S,15aS,17R,21S,23aS)-8-hydroxy-13,17,21-trimethyl-6,11,15,20,23-pentaoxooctadecahydro-6H,11H,15H-[1,4]oxazino[3,4-i]dipyrrolo[2,1-c:2′,1′-l][1]oxa[4,7,10,13]tetraazacyclohexadecin-12-yl)propanamide] ({NH(3,4-Me2-phenyl)-CO}-[Phe(3,5-F2)][aThr][Hyp][Morpholine(3S-CO)]A[Pro(4R-Me)]; ester 2-C), the EC50 on Sa-ClpP (setting [2]) turned out to be 0.5 ± 0.01 µM.
